Source: patent US8476062B2, “Biosensor method and system based on feature vector extraction” (priority 2005, dated 2013)
“And” between values parts separate entries of the source, which are not always exact repeats. Identical values can stand only once. Like-named read-outs stand apart in the source and are kept apart here.

Columns and labels:
[1] = test system: Clinch River samples (naturally-occurring photosynthetic organisms); experiment: Toxic agent detection by fluorescence induction, Clinch River samples; type: cell-based
Procedure: (§1) Fluorescence induction data set of normal primary-source drinking water samples as well as samples exposed to four different toxic agents at different concentrations were collected. The control and toxic-agent-exposed fluorescence induction data were taken every 5 minutes after the dark adaptation for 15 minutes. • 20 μM DCMU, • 5 mM/10 mM KCN, • 40 μM/60 μM MPt, and • 225 μM Paraquat. Experiment 1—Toxic Agent Detection
(§2) The objective of the first experiment performed was to evaluate the performance of the inventive methodology in detecting the presence of toxic agents. FIGS. 12-23 show the extracted features (including PSII, amplitude statistics, and wavelet coefficient statistical features) of each specific toxic agent as functions of time. The toxic agents were added into the samples at time 0, therefore, the signals with negative time index correspond to the control data and the signals during the positive time period are the agent-exposed data collected from either the Clinch River samples or the lab-grown Chlamydomonas reinhardtii samples. At each time moment, three samples were collected and feature values calculated. The mean and standard deviation of these three values are used to illustrate the performance curve at that time moment. To examine the change of feature values over time, the signal collected at time 0 as reference was chosen and yield at each time moment calculated (feature at time t−feature at time 0)/feature at time 0. The following notations are used to describe these performance curves: • μc(t), σc(t): the mean and the standard deviation of the feature values derived from the three control samples collected at moment t (with a negative time index) • μe(t), σe(t): the mean and the standard deviation of the feature values derived from the three exposure samples collected at moment t (with a positive time index)
(§3) In order to quantitatively evaluate the effectiveness of each feature in differentiating between the control and the exposure signals of different toxic agents, two metrics are introduced: the Fisher criterion and the average confidence level. The Fisher criterion originates from pattern classification (Duda, et al., 2001) where a linear projection is pursued in order to best separate two classes. In this work, the definition of Fisher criterion is used to quantify different performance curves in differentiating between the control and the exposure signals. In general, the Fisher criterion looks for the feature that maximizes the difference between the mean value of feature derived from the control and the exposed signal while minimizing the variance among them, as formulated below: […]
(§4) Table 1 lists the value of the Fisher criterion to evaluate the effect of using different features for agent detection. In both Table 1 and Table 2 “Clinch” refers to Clinch River samples and “Chlamy” to lab-grown Chlamydomonas reinhardtii samples. It can be seen from Table 1 below that the first-order amplitude statistics (mean) gives the best metric evaluation for most of the toxic agents, while the wavelet analysis, the standard deviation and the skewness in amplitude statistics also contribute to the differentiation between control and exposure signals in some cases.

[2] = test system: lab-grown Chlamydomonas reinhardtii; experiment: Toxic agent detection by fluorescence induction, lab-grown Chlamydomonas reinhardtii samples; type: cell-based
Procedure: as §1, §2, §3, §4

**Q.** For COP(=S)(OC)Oc1ccc([N+](=O)[O-])cc1 [MPt, methyl parathion], which “Fisher criterion (control vs exposure signals), Amplitude Statistics Mean” value [1] is on record?
**A.** 9.9401 and 5.1574

**Q.** What about the “Fisher criterion (control vs exposure signals), Wavelet Coefficient Energy” value [1] of the same compound?
**A.** 258.6794 and 159.3636

**Q.** And the “Fisher criterion (control vs exposure signals), Wavelet Coefficient Mean” value [1]?
**A.** 148.3582 and 75.2339

**Q.** What about the “Fisher criterion (control vs exposure signals), Amplitude Statistics Mean” value [2] of the same compound?
**A.** 15.3435 and 20.3104

**Q.** And the “Fisher criterion (control vs exposure signals), PSII” value [2]?
**A.** 7.8844 and 11.7760

**Q.** What about the “Fisher criterion (control vs exposure signals), Wavelet Coefficient Energy” value [2] of the same compound?
**A.** 29.3503 and 29.5307

**Q.** What about the “Fisher criterion (control vs exposure signals), Wavelet Coefficient Mean” value [2] of the same compound?
**A.** 15.7935 and 22.2547

**Q.** C[n+]1ccc(-c2cc[n+](C)cc2)cc1 [Paraquat] was tested. Which “Fisher criterion (control vs exposure signals), Amplitude Statistics Kurtosis” value ([1]; Clinch, 225 μM Paraquat) did it give?
**A.** 13.0980

**Q.** And the “Fisher criterion (control vs exposure signals), Amplitude Statistics Mean” value ([1]; Clinch, 225 μM Paraquat)?
**A.** 0.6992

**Q.** What about the “Fisher criterion (control vs exposure signals), Amplitude Statistics Skewness” value ([1]; Clinch, 225 μM Paraquat) of the same compound?
**A.** 21.8997

**Q.** And the “Fisher criterion (control vs exposure signals), PSII” value ([1]; Clinch, 225 μM Paraquat)?
**A.** 40.3550

**Q.** What about the “Fisher criterion (control vs exposure signals), Wavelet Coefficient Energy” value ([1]; Clinch, 225 μM Paraquat) of the same compound?
**A.** 121.8164

**Q.** And the “Fisher criterion (control vs exposure signals), Wavelet Coefficient Mean” value ([1]; Clinch, 225 μM Paraquat)?
**A.** 88.1866

**Q.** And the “Fisher criterion (control vs exposure signals), Amplitude Statistics Kurtosis” value ([2]; Chlamy, 225 μM Paraquat)?
**A.** 0.5380

**Q.** What about the “Fisher criterion (control vs exposure signals), Amplitude Statistics Mean” value ([2]; Chlamy, 225 μM Paraquat) of the same compound?
**A.** 9.2416

**Q.** And the “Fisher criterion (control vs exposure signals), Amplitude Statistics Skewness” value ([2]; Chlamy, 225 μM Paraquat)?
**A.** 0.1661

**Q.** What about the “Fisher criterion (control vs exposure signals), PSII” value ([2]; Chlamy, 225 μM Paraquat) of the same compound?
**A.** 33.4259

**Q.** And the “Fisher criterion (control vs exposure signals), Wavelet Coefficient Energy” value ([2]; Chlamy, 225 μM Paraquat)?
**A.** 15.7150

**Q.** And the “Fisher criterion (control vs exposure signals), Wavelet Coefficient Mean” value ([2]; Chlamy, 225 μM Paraquat)?
**A.** 7.4516

**Q.** Which results are given for CN(C)C(=O)Nc1ccc(Cl)c(Cl)c1 [DCMU, Diuron]?
**A.** Fisher criterion (control vs exposure signals), Amplitude Statistics Kurtosis ([1]; Clinch, 20 μM DCMU): 71.3140; Fisher criterion (control vs exposure signals), Amplitude Statistics Mean ([1]; Clinch, 20 μM DCMU): 356.4241; Fisher criterion (control vs exposure signals), Amplitude Statistics Skewness ([1]; Clinch, 20 μM DCMU): 64.7360; Fisher criterion (control vs exposure signals), PSII ([1]; Clinch, 20 μM DCMU): 62.8073; Fisher criterion (control vs exposure signals), Wavelet Coefficient Energy ([1]; Clinch, 20 μM DCMU): 93.8024; Fisher criterion (control vs exposure signals), Wavelet Coefficient Mean ([1]; Clinch, 20 μM DCMU): 37.3350; Fisher criterion (control vs exposure signals), Amplitude Statistics Kurtosis ([2]; Chlamy, 20 μM DCMU): 242.9; Fisher criterion (control vs exposure signals), Amplitude Statistics Mean ([2]; Chlamy, 20 μM DCMU): 2111.9; Fisher criterion (control vs exposure signals), Amplitude Statistics Skewness ([2]; Chlamy, 20 μM DCMU): 835.9; Fisher criterion (control vs exposure signals), PSII ([2]; Chlamy, 20 μM DCMU): 63.9; Fisher criterion (control vs exposure signals), Wavelet Coefficient Energy ([2]; Chlamy, 20 μM DCMU): 8.2; Fisher criterion (control vs exposure signals), Wavelet Coefficient Mean ([2]; Chlamy, 20 μM DCMU): 5.3
